Source: the NIST ThermoML archive (doi:10.1021/je034087q)
Numbers after ± are expanded uncertainties.

Test: xn = mol fraction of the nth substance listed

CC(C)=O [acetone] + O=C=O
Details	mass density [kg/m3]
323.15 K, 11950 kPa, Fluid (supercritical or subcritical phases), x2 = 0.811	807 ± 5
323.15 K, 12030 kPa, Fluid (supercritical or subcritical phases), x2 = 0.902	754 ± 5
323.15 K, 12090 kPa, Fluid (supercritical or subcritical phases), x2 = 0.948	711 ± 4
323.15 K, 12200 kPa, Fluid (supercritical or subcritical phases), x2 = 0.933	731 ± 5
323.15 K, 12260 kPa, Fluid (supercritical or subcritical phases), x2 = 0.882	779 ± 5
323.15 K, 12300 kPa, Fluid (supercritical or subcritical phases), x2 = 0.902	757 ± 5
323.15 K, 12370 kPa, Fluid (supercritical or subcritical phases), x2 = 0.772	818 ± 5
323.15 K, 12400 kPa, Fluid (supercritical or subcritical phases), x2 = 0.952	710 ± 4
323.15 K, 12560 kPa, Fluid (supercritical or subcritical phases), x2 = 0.811	813 ± 5
323.15 K, 12620 kPa, Fluid (supercritical or subcritical phases), x2 = 0.902	762 ± 5
323.15 K, 12620 kPa, Fluid (supercritical or subcritical phases), x2 = 0.933	740 ± 5
323.15 K, 12680 kPa, Fluid (supercritical or subcritical phases), x2 = 0.186	788 ± 5
323.15 K, 12750 kPa, Fluid (supercritical or subcritical phases), x2 = 0.948	727 ± 5
323.15 K, 12960 kPa, Fluid (supercritical or subcritical phases), x2 = 0.902	769 ± 5
323.15 K, 12970 kPa, Fluid (supercritical or subcritical phases), x2 = 0.882	785 ± 5
323.15 K, 13090 kPa, Fluid (supercritical or subcritical phases), x2 = 0.811	818 ± 5
323.15 K, 13130 kPa, Fluid (supercritical or subcritical phases), x2 = 0.772	823 ± 5
323.15 K, 13130 kPa, Fluid (supercritical or subcritical phases), x2 = 0.933	748 ± 5
323.15 K, 13170 kPa, Fluid (supercritical or subcritical phases), x2 = 0.952	726 ± 5
323.15 K, 13190 kPa, Fluid (supercritical or subcritical phases), x2 = 0.576	829 ± 5
323.15 K, 13240 kPa, Fluid (supercritical or subcritical phases), x2 = 0.902	771 ± 5
323.15 K, 13450 kPa, Fluid (supercritical or subcritical phases), x2 = 0.902	775 ± 5
323.15 K, 13560 kPa, Fluid (supercritical or subcritical phases), x2 = 0.383	813 ± 5
323.15 K, 13560 kPa, Fluid (supercritical or subcritical phases), x2 = 0.882	791 ± 5
323.15 K, 13610 kPa, Fluid (supercritical or subcritical phases), x2 = 0.811	821 ± 5
323.15 K, 13640 kPa, Fluid (supercritical or subcritical phases), x2 = 0.948	744 ± 5
323.15 K, 13700 kPa, Fluid (supercritical or subcritical phases), x2 = 0.933	758 ± 5
323.15 K, 13770 kPa, Fluid (supercritical or subcritical phases), x2 = 0.902	776 ± 5
323.15 K, 13790 kPa, Fluid (supercritical or subcritical phases), x2 = 0.772	827 ± 5
323.15 K, 14080 kPa, Fluid (supercritical or subcritical phases), x2 = 0.186	789 ± 5
323.15 K, 14080 kPa, Fluid (supercritical or subcritical phases), x2 = 0.952	744 ± 5
323.15 K, 14100 kPa, Fluid (supercritical or subcritical phases), x2 = 0.902	781 ± 5
323.15 K, 14290 kPa, Fluid (supercritical or subcritical phases), x2 = 0.933	767 ± 5
323.15 K, 14430 kPa, Fluid (supercritical or subcritical phases), x2 = 0.902	785 ± 5
323.15 K, 14460 kPa, Fluid (supercritical or subcritical phases), x2 = 0.811	826 ± 5
323.15 K, 14550 kPa, Fluid (supercritical or subcritical phases), x2 = 0.772	831 ± 5
323.15 K, 14550 kPa, Fluid (supercritical or subcritical phases), x2 = 0.882	800 ± 5
323.15 K, 14590 kPa, Fluid (supercritical or subcritical phases), x2 = 0.952	751 ± 5
323.15 K, 14730 kPa, Fluid (supercritical or subcritical phases), x2 = 0.948	762 ± 5
323.15 K, 14780 kPa, Fluid (supercritical or subcritical phases), x2 = 0.902	789 ± 5
323.15 K, 14810 kPa, Fluid (supercritical or subcritical phases), x2 = 0.383	817 ± 5
323.15 K, 14920 kPa, Fluid (supercritical or subcritical phases), x2 = 0.933	777 ± 5
323.15 K, 14950 kPa, Fluid (supercritical or subcritical phases), x2 = 0.186	791 ± 5
323.15 K, 15040 kPa, Fluid (supercritical or subcritical phases), x2 = 0.576	834 ± 5
323.15 K, 15140 kPa, Fluid (supercritical or subcritical phases), x2 = 0.902	792 ± 5
323.15 K, Liquid, Other PVT measurement, x2 = 0.186	760 ± 2
323.15 K, Liquid, Other PVT measurement, x2 = 0.383	787 ± 2
323.15 K, Liquid, Other PVT measurement, x2 = 0.576	795 ± 2
323.15 K, Liquid, Other PVT measurement, x2 = 0.772	779 ± 2
323.15 K, Liquid, Other PVT measurement, x2 = 0.811	758 ± 2
323.15 K, Liquid, Other PVT measurement, x2 = 0.882	701 ± 2
323.15 K, Liquid, Other PVT measurement, x2 = 0.902	672 ± 2
323.15 K, Liquid, Other PVT measurement, x2 = 0.933	584 ± 2
326.65 K, 9160 kPa, Fluid (supercritical or subcritical phases), x2 = 0.933	528 ± 3
326.65 K, 9180 kPa, Fluid (supercritical or subcritical phases), x2 = 0.933	531 ± 3
